This passage reports Ki results from ChEMBL document CHEMBL5442175, “EUbOPEN Chemogenomics Library - PDSP Secondary Binding” (2024).

For assay [1], the target named is T1, Muscarinic acetylcholine receptor M5 (Homo sapiens, UniProt P08912).
T1 sequence (P08912 whole entry): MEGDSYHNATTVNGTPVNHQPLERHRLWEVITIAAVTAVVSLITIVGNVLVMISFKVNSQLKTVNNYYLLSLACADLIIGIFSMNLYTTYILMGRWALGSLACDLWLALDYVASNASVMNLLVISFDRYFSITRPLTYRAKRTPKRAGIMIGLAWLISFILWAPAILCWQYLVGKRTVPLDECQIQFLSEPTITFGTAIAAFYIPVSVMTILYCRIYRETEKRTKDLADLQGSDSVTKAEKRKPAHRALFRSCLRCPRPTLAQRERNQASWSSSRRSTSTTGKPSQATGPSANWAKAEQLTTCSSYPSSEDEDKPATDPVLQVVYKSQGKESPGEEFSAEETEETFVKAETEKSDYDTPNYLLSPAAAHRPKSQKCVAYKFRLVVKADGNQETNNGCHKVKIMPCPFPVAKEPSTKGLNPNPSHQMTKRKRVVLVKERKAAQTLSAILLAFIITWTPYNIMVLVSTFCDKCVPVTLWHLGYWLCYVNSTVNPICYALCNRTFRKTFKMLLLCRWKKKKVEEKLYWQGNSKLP
In words: PDSP Secondary Binding target: CHRM5 - Compounds are tested at 10 uM concentration, plate are incubated at room temperature in the dark for 90 minutes. Reaction are stopped by vacuum filtration onto 0.3% polyethyleneimine soaked filter mats using Filtermate harvester. Scintillation cocktail is then melted onto microwave-dried filters on a hot plate and the radio activity is counted in Microbia counter.

Assay [2] deals with T2, Muscarinic acetylcholine receptor M1 (Homo sapiens, UniProt P11229).
T2 sequence (P11229 whole entry): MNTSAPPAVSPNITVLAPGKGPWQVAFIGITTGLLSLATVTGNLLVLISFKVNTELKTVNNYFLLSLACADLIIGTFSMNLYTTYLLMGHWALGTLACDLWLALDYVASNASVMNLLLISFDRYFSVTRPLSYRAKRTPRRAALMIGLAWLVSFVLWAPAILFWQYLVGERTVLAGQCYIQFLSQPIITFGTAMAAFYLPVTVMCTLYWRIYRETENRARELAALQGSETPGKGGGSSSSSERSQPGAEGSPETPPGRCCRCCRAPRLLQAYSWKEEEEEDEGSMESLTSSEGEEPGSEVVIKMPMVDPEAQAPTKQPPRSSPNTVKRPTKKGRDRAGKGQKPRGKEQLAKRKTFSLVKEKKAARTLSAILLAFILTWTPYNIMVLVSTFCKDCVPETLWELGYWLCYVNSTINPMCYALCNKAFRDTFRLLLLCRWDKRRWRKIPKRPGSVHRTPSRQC
Kind of assay: PDSP Secondary Binding target: CHRM1 - Compounds are tested at 10 uM concentration, plate are incubated at room temperature in the dark for 90 minutes. Reaction are stopped by vacuum filtration onto 0.3% polyethyleneimine soaked filter mats using Filtermate harvester. Scintillation cocktail is then melted onto microwave-dried filters on a hot plate and the radio activity is counted in Microbia counter.

For a further assay, the target named is Histamine H2 receptor (Homo sapiens, UniProt P25021). In words: PDSP Secondary Binding target: HRH2 - Compounds are tested at 10 uM concentration, plate are incubated at room temperature in the dark for 90 minutes. Reaction are stopped by vacuum filtration onto 0.3% polyethyleneimine soaked filter mats using Filtermate harvester. Scintillation cocktail is then melted onto microwave-dried filters on a hot plate and the radio activity is counted in Microbia counter.
Chain of Histamine H2 receptor (P25021 whole entry): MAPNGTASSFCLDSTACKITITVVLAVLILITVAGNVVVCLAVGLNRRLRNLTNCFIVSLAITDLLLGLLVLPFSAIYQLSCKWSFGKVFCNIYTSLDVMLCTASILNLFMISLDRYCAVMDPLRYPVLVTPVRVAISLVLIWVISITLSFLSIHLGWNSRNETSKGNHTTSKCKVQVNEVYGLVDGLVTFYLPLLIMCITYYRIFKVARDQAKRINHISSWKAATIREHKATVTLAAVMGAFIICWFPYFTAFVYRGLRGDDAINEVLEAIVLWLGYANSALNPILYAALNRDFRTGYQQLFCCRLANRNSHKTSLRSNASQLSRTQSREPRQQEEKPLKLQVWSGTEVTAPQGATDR

Assay [3] has as its target Kappa-type opioid receptor (Homo sapiens, UniProt P41145). In words: PDSP Secondary Binding target: OPRK1 - Compounds are tested at 10 uM concentration, plate are incubated at room temperature in the dark for 90 minutes. Reaction are stopped by vacuum filtration onto 0.3% polyethyleneimine soaked filter mats using Filtermate harvester. Scintillation cocktail is then melted onto microwave-dried filters on a hot plate and the radio activity is counted in Microbia counter.

Assay [4] addresses T3, Alpha-2C adrenergic receptor (Homo sapiens, UniProt P18825).
T3 sequence (P18825 whole entry): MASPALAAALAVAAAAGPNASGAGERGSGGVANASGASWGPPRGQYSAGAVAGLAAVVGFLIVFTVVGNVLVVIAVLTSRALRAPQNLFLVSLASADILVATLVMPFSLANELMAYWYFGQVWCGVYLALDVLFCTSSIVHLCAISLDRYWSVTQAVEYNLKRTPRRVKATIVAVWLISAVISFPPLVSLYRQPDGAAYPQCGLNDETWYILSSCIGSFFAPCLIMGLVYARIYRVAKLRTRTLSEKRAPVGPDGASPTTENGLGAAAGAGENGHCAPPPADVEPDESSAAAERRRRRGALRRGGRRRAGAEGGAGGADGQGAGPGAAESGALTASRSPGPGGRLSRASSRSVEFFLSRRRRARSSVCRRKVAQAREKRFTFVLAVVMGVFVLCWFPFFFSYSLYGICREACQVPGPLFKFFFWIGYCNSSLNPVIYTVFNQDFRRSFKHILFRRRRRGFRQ
Kind of assay: PDSP Secondary Binding target: ADRA2C - Compounds are tested at 10 uM concentration, plate are incubated at room temperature in the dark for 90 minutes. Reaction are stopped by vacuum filtration onto 0.3% polyethyleneimine soaked filter mats using Filtermate harvester. Scintillation cocktail is then melted onto microwave-dried filters on a hot plate and the radio activity is counted in Microbia counter.

The next assay deals with Mu-type opioid receptor (Homo sapiens, UniProt P35372). In words: PDSP Secondary Binding target: OPRM1 - Compounds are tested at 10 uM concentration, plate are incubated at room temperature in the dark for 90 minutes. Reaction are stopped by vacuum filtration onto 0.3% polyethyleneimine soaked filter mats using Filtermate harvester. Scintillation cocktail is then melted onto microwave-dried filters on a hot plate and the radio activity is counted in Microbia counter.
Chain of Mu-type opioid receptor (P35372 whole entry): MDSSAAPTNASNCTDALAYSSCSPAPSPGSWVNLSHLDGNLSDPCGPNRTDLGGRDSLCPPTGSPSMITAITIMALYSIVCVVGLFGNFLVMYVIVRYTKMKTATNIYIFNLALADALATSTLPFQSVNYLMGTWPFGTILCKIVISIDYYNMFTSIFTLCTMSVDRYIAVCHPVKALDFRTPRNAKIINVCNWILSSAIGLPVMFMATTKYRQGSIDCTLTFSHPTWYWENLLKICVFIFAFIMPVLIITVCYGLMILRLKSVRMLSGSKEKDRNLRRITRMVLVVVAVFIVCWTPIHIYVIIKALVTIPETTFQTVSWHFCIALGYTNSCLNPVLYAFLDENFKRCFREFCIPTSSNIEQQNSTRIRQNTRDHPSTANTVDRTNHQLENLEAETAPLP

Chain of Kappa-type opioid receptor (P41145 whole entry): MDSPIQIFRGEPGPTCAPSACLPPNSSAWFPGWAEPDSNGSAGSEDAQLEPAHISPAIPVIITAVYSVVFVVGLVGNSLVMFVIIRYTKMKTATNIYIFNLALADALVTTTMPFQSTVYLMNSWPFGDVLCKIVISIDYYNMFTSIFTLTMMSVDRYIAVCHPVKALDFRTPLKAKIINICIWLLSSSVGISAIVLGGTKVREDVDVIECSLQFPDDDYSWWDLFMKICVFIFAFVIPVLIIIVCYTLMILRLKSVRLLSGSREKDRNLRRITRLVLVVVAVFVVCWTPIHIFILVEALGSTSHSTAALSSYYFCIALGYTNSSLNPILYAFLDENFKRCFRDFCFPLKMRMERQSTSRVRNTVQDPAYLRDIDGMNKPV

Broadly, the Ki is the equilibrium dissociation constant of an inhibitor or competing ligand from its target. Higher therefore signals a looser hold on the target. On to `Cc1cn2cc(CC(=O)N3CCC4(CC3)CN(Cc3ccc(-n5nccn5)cc3Cl)C4)nc2s1`, for which the Ki came to 662 nM in assay [1], 846 nM in assay [2] and 3300 nM on Histamine H2 receptor.
For `Cc1c(P(=S)(c2ccccc2)c2ccccc2)n2ccccc2[n+]1C/C=C/c1ccccc1`, the Ki in assay [1] came to 510 nM; in assay [2], 1180 nM; on Histamine H2 receptor, 2960 nM; in assay [3], 118 nM; in assay [4], 222 nM; at Mu-type opioid receptor it was 102 nM.
